Measured values reported in patent publication US20090082455A1, “THERAPEUTIC AGENT FOR OPHTHALMIC DISEASE” (ONO PHARMACEUTICAL CO. LTED, priority 2005, published 2009).
“Also recorded” adds a separate entry of the source. Counter-ions that a name gives are not always drawn. Like-named read-outs stand apart in the source and are kept apart here.

Legend:
Type in all cases: in vivo
S100-positive cells = experiment: Rat retinal ischemia model: S100-positive cell number and area (S100 staining); details: for Effect on increases in S100 positive areas / Effect on changes in number of S100-positive cells: result in words; for Effect on changes in number of S100-positive cells: A2 and A4 points; for inhibition at 10 mg/kg: Rattus norvegicus, S100, iv; for Area of S100 positive cells, A1 (mean): point A1; for Area of S100 positive cells, A2 (mean) / Number of S100 positive cells, A2 (mean): point A2; for Area of S100 positive cells, A3 (mean): point A3; for Area of S100 positive cells, A4 (mean) / Number of S100 positive cells, A4 (mean): point A4 (optic nerve)
Protocol: (§1) A 27 G injection needle (4) was attached to an end of the tube. A part about 20 cm below the bottom end of the perfusion line was attached to a supporting bar and the part was lightly fixed by a stand.
(§2) A rat (Crj:CD(SD) IGS, from CHARLES RIVER LABORATORIES JAPAN, Inc.) was anesthetized with pentobarbital sodium (40 mg/kg, i.p.) and the pupil of the eye to be operated were preliminarily dilated by using a mydriasis agent (MYDRIN P; manufactured by SANTEN PHARMACEUTICAL Co., Ltd.).
(§3) Before the surgical operation, the bottle (1) was held up so that the water surface in the perfusion bottle was located on 163.5 cm above the rat eyes in the state of closing the perfusion line (loading an intraocular pressure of […]). After opening the top end, the perfusion line was connected to a differential pressure transducer and the height was adjusted to give a predetermined pressure, followed by closing the line. With confirming the mydriasis under a stereoscopic microscope, the stopper of the perfusion line was loosened and the solution was dropped little by little from the needle point. As the cornea was tightly sandwiched between tweezers and an injection needle (4), the injection needle (4) was punctured into the anterior chamber (5) from the nasal side. Next, the perfusion line was opened to load pressure in the anterior chamber (5). After loading the ischemia for 60 minutes, the injection needle (4) was taken off and the animals were awaken out of the anesthesia with keeping the body temperature at 37° C. In the sham-ischemia group, an injection needle was punctured into the anterior chamber from the nasal side in the state of closing the perfusion line, followed by taking off after 60 minutes.
(§4) (2R)-2-propyloctanoic acid was intravenously administered via the tail vein in a dose of 10 mg/mL/kg once a day for 7 days from the day of the ischemic operation. Dizocilpine maleate ((+)-MK-801 maleate, hereinafter referred to simply as “MK-801”) which is a positive control compound was intravenously administered via the tail vein in a dose of 10 mg/mL/kg once alone 30 minutes before the ischemic operation.
(§5) A rat was anesthetized with pentobarbital sodium (40 mg/kg, i.p.) and fixed at the dorsal position. After incising the subcostal skin, with grasping the xiphoid process with tweezers or a kocher, the upper end of the anterior abdominal muscle was horizontally incised with scissors. Next, after reversing the chest wall, the xiphoid process was grasped with a kocher or the chest wall was grasped with a kocher to expose the heart. The heart was grasped with tweezers and the left ventricular was incised with scissors. Then, the front end of a disposable oral probe for mouse connected to a blood transfusion tube was introduced from the left ventricular to the aorta and the end of the oral probe was grasped with a clamp. The atrial auricula was incised and perfused with physiological saline containing heparin (10 U/mL). The blood transfusion tube and the disposable oral probe for mouse were replaced with fresh ones and perfusion with a 10% neutral formalin buffer was conducted in the same manner as described above for fixation. After fixing, both eyes were taken out, stored in a sample bottle filled with the 10% neutral formalin buffer and subjected to the following evaluation.
(§6) An ischemic eye was excised, embedded and sliced. Next, hematoxylin-eosin staining, GFAP (glial fibrillary acidic protein) staining and S100 staining by the methods as shown in the following (5-2) to (5-4) were carried out.
An anti-S 100 rabbit antibody (cat No. Z0311, DAKO) was used. […]

GCL cells = experiment: Rat retinal ischemia model: number of GCL cells (HE staining); details: 10 mg/kg i.v.; for Effect on decrease in number of optic nerve cells / optic nerve cell death caused by ischemia: result in words; for Number of GCL cells, A1 (mean): retina point A1, 2 mm from optic nerve papilla; for Number of GCL cells, A1 (mean) / Number of GCL cells, A3 (mean) / Number of GCL cells, A1 + A3 (mean): 60 min ischemia; for Number of GCL cells, A3 (mean): retina point A3, 2 mm from optic nerve papilla; for Number of GCL cells, A1 + A3 (mean): sum of A1 and A3; for Inhibitory rate of decrease in number of optic nerve cells, A1+A3: sum of A1 and A3 data
Protocol: as §1, §2, §3, §4, §5, §6
(1) deparaffinization; (2) water washing; (3) nuclear staining with hematoxylin for 20 minutes; (4) water washing and color development for 10 minutes; (5) eosin for 3 minutes; and (6) dehydration→penetration→enclosure.
Using HE-stained samples thus obtained, GCL cells at two points (A1, A3; refer to FIG. 2) on the retina which are 2 mm apart from the optic nerve papilla (A2) were counted (cells/mm^2).

GFAP-positive cells = experiment: Rat retinal ischemia model: GFAP-positive cell number and area (GFAP staining); details: for Effect on changes in number of GFAP-positive cells / Effect on increases in GFAP positive areas: result in words; for inhibition at 10 mg/kg: Rattus norvegicus, iv; for Number of GFAP positive cells, A2 (mean): point A2 (optic nerve papilla); for Area of GFAP positive cells, A2 (mean): point A2; for Area of GFAP positive cells, A3 (mean) / Number of GFAP positive cells, A3 (mean): point A3; for Area of GFAP positive cells, A4 (mean): point A4 (optic nerve)
Protocol: as §1, §2, §3, §4, §5, §6
An anti-GFAP rabbit antibody (cat No. Z0334, DAKO) was used. […]

[1] = Single intravenous administration toxicity test in dogs; details: 100 mg/kg, single i.v.
Excerpt: Since toxicity of (2R)-2-propyloctanoic acid, a salt thereof or prodrug thereof is low, it can be considered to be sufficiently safe for medicinal uses.

Structure (SMILES): C[C@]12N[C@H](Cc3ccccc31)c1ccccc12 [MK-801, Dizocilpine maleate, reference compound]
- Effect on increases in S100 positive areas (S100-positive cells; 10 mg/kg i.v.): showed inhibitory effects
- Effect on changes in number of S100-positive cells (S100-positive cells; 10 mg/kg i.v.): showed an inhibitory effect exclusively on the increase in the number of S100-positive cells at the A2 point
- inhibition at 10 mg/kg (S100-positive cells; read-out: Inhibitory rate of increase in S100 positive area at point A4): 51.2%
- Area of S100 positive cells, A1 (mean) (S100-positive cells; 10 mg/kg i.v.): 1.9 % AREA
- Area of S100 positive cells, A2 (mean) (S100-positive cells; 10 mg/kg i.v.): 3.8 % AREA
- Number of S100 positive cells, A2 (mean) (S100-positive cells; 10 mg/kg i.v.): 212.9 cells/mm^2
- Area of S100 positive cells, A3 (mean) (S100-positive cells; 10 mg/kg i.v.): 2.1 % AREA
- Area of S100 positive cells, A4 (mean) (S100-positive cells; 10 mg/kg i.v.): 6.8 % AREA
- Number of S100 positive cells, A4 (mean) (S100-positive cells; 10 mg/kg i.v.): 600.2 cells/mm^2
- Effect on decrease in number of optic nerve cells / optic nerve cell death caused by ischemia (GCL cells): showed inhibitory effects
- Number of GCL cells, A1 (mean) (GCL cells): 125.1 cells/mm^2
- Number of GCL cells, A3 (mean) (GCL cells): 134.9 cells/mm^2
- Number of GCL cells, A1 + A3 (mean) (GCL cells): 260.0 cells/mm^2
- Inhibitory rate of decrease in number of optic nerve cells, A1+A3 (GCL cells): 59.5%
- Effect on changes in number of GFAP-positive cells (GFAP-positive cells; 10 mg/kg i.v.): showed inhibitory effects
- Effect on increases in GFAP positive areas (GFAP-positive cells; 10 mg/kg i.v.): showed inhibitory effects
- inhibition at 10 mg/kg (GFAP-positive cells; read-out: Inhibitory rate of change in number of GFAP-positive cells at point A1): 42.9%
- inhibition at 10 mg/kg (GFAP-positive cells; read-out: Inhibitory rate of increase in GFAP positive area at the point A1): 78.3%
- Area of GFAP positive cells, A1 (mean) (GFAP-positive cells; point A1, 10 mg/kg i.v.): 3.4 % AREA
- Number of GFAP positive cells, A1 (mean) (GFAP-positive cells; point A1, 10 mg/kg i.v.): 47.8 cells/mm^2
- Number of GFAP positive cells, A2 (mean) (GFAP-positive cells; 10 mg/kg i.v.): 275.3 cells/mm^2
- Area of GFAP positive cells, A2 (mean) (GFAP-positive cells; 10 mg/kg i.v.): 11.0 % AREA
- Area of GFAP positive cells, A3 (mean) (GFAP-positive cells; 10 mg/kg i.v.): 3.6 % AREA
- Number of GFAP positive cells, A3 (mean) (GFAP-positive cells; 10 mg/kg i.v.): 56.8 cells/mm^2
- Area of GFAP positive cells, A4 (mean) (GFAP-positive cells; 10 mg/kg i.v.): 17.9 % AREA

Structure (SMILES): CCCCCC[C@@H](CCC)C(=O)O [(2R)-2-propyloctanoic acid]
- Effect on increases in S100 positive areas (S100-positive cells; 10 mg/kg i.v.): showed inhibitory effects
- Effect on changes in number of S100-positive cells (S100-positive cells; 10 mg/kg i.v.): showed an inhibitory effect
- inhibition at 10 mg/kg (S100-positive cells; point A4, 10 mg/kg i.v., read-out: Inhibitory rate of increase in S100 positive area at point A4): 93.9%
- inhibition at 10 mg/kg (S100-positive cells; point A4, 10 mg/kg i.v., read-out: Inhibitory rate of increase in number of S100-positive cells at point A4): 31.2%
- Area of S100 positive cells, A1 (mean) (S100-positive cells; 10 mg/kg i.v.): 1.9 % AREA
- Area of S100 positive cells, A2 (mean) (S100-positive cells; 10 mg/kg i.v.): 3.5 % AREA
- Number of S100 positive cells, A2 (mean) (S100-positive cells; 10 mg/kg i.v.): 295.4 cells/mm^2
- Area of S100 positive cells, A3 (mean) (S100-positive cells; 10 mg/kg i.v.): 1.6 % AREA
- Area of S100 positive cells, A4 (mean) (S100-positive cells; 10 mg/kg i.v.): 3.3 % AREA
- Number of S100 positive cells, A4 (mean) (S100-positive cells; 10 mg/kg i.v.): 307.7 cells/mm^2
- Lethality after single intravenous administration [1]: no fatal case was observed
- Effect on decrease in number of optic nerve cells / optic nerve cell death caused by ischemia (GCL cells): showed inhibitory effects; also recorded: remarkable effect of inhibiting optic nerve cell death
- Number of GCL cells, A1 (mean) (GCL cells): 116.4 cells/mm^2
- Number of GCL cells, A3 (mean) (GCL cells): 129.9 cells/mm^2
- Number of GCL cells, A1 + A3 (mean) (GCL cells): 246.3 cells/mm^2
- Inhibitory rate of decrease in number of optic nerve cells, A1+A3 (GCL cells): 52.1%
- Effect on changes in number of GFAP-positive cells (GFAP-positive cells; 10 mg/kg i.v.): showed inhibitory effects
- Effect on increases in GFAP positive areas (GFAP-positive cells; 10 mg/kg i.v.): showed inhibitory effects
- inhibition at 10 mg/kg (GFAP-positive cells; point A1, 10 mg/kg i.v., read-out: Inhibitory rate of change in number of GFAP-positive cells at point A1): 69%
- inhibition at 10 mg/kg (GFAP-positive cells; point A1 as printed, 10 mg/kg i.v., read-out: Inhibitory rate of increase in GFAP positive area at the point A1): 87.8%
- Area of GFAP positive cells, A1 (mean) (GFAP-positive cells; point A1, 10 mg/kg i.v.): 4.2 % AREA
- Number of GFAP positive cells, A1 (mean) (GFAP-positive cells; point A1, 10 mg/kg i.v.): 52.6 cells/mm^2
- Number of GFAP positive cells, A2 (mean) (GFAP-positive cells; 10 mg/kg i.v.): 317.9 cells/mm^2
- Area of GFAP positive cells, A2 (mean) (GFAP-positive cells; 10 mg/kg i.v.): 10.1 % AREA
- Area of GFAP positive cells, A3 (mean) (GFAP-positive cells; 10 mg/kg i.v.): 4.2 % AREA
- Number of GFAP positive cells, A3 (mean) (GFAP-positive cells; 10 mg/kg i.v.): 52.9 cells/mm^2
- Area of GFAP positive cells, A4 (mean) (GFAP-positive cells; 10 mg/kg i.v.): 16.8 % AREA
